Data from ChEMBL document CHEMBL3832761, “MMV Pathogen Box Bioactivity Data” (2017).

Tests used:
[1] = PMM CC50 (uM) Cytotoxicity; assay type: functional; conditions: Macrophage
Leishmania infantum = experiment: AntiLeishmania activity L. infantum (macrophages) IC50 (uM); assay type: functional, organism-based
L6 = experiment: L6 CC50 (uM) Cytotoxicity; assay type: functional; conditions: Rattus norvegicus
Trypanosoma brucei [2] = experiment: AntiTrypanosoma brucei activity T. b. rhodesiense IC50 (uM); assay type: functional, organism-based
Leishmania donovani [3] = experiment: AntiLeishmania activity L. donovani (macrophages) IC50 (uM); assay type: functional, organism-based
Trypanosoma cruzi = experiment: AntiTrypanosoma cruzi activity IC50 (uM); assay type: functional, organism-based
HepG2 [4] = experiment: Cytotoxicity data HepG2 CC20 (uM); assay type: functional
Leishmania = experiment: AntiLeishmania activity Toxicity on infected PMM (uM); assay type: functional
Leishmania donovani [5] = experiment: AntiLeishmania activity L. donovani (axenic) IC50 (uM); assay type: functional, organism-based
Trypanosoma brucei [6] = experiment: AntiTrypanosoma brucei activity T. b. brucei IC50 (uM); assay type: functional, organism-based
MRC5 = experiment: MRC5 CC50 (uM) Cytotoxicity; assay type: functional; conditions: Homo sapiens
Plasmodium falciparum [7] = experiment: Antimalarial activity: Gametocytes Plasmodium falciparum NF54 Gametocytes Stage V: inhibition at 10 uM (%); assay type: functional
Plasmodium falciparum [8] = experiment: Antimalarial activity: Asexual Blood Stage Plasmodium falciparum W2 IC50 (uM); assay type: functional, organism-based
Plasmodium berghei [9] = experiment: Antimalarial activity: Liver Stage Plasmodium berghei sporozoite Luciferase assay IC50 (uM); assay type: functional, organism-based
Plasmodium berghei [10] = experiment: Antimalarial activity: Liver Stage Plasmodium berghei sporozoite Luciferase assay: inhibition at 10 uM (%); assay type: functional
Plasmodium falciparum [11] = experiment: Antimalarial activity: Gametocytes Plasmodium falciparum NF54 Gametocytes Stage V IC50 (uM); assay type: functional, organism-based
HepG2 [12] = experiment: HepG2 CC50 (uM) Cytotoxicity; assay type: functional; conditions: Homo sapiens
Plasmodium falciparum [13] = experiment: Antimalarial activity: Asexual Blood Stage Plasmodium falciparum 3D7 IC50 (uM); assay type: functional, organism-based
Plasmodium falciparum [14] = experiment: Antimalarial activity: Asexual Blood Stage Plasmodium falciparum Dd2 IC50 (uM); assay type: functional, organism-based

Compound | CC50 [1] [µM] | IC50 (Leishmania infantum) [µM] | CC50 (L6) [µM] | IC50 (Trypanosoma brucei [2]) [µM] | IC50 (Leishmania donovani [3]) [µM] | IC50 (Trypanosoma cruzi) [µM] | CC20 (HepG2 [4]) [µM] | Toxicity on infected macrophages (Leishmania) [µM] | IC50 (Leishmania donovani [5]) [µM] | IC50 (Trypanosoma brucei [6]) [µM] | CC50 (MRC5) [µM] | Inhibition (Plasmodium falciparum [7]) [%] | IC50 (Plasmodium falciparum [8]) [µM] | IC50 (Plasmodium berghei [9]) [µM] | Inhibition (Plasmodium berghei [10]) [%] | IC50 (Plasmodium falciparum [11]) [µM] | CC50 (HepG2 [12]) [µM] | IC50 (Plasmodium falciparum [13]) [µM] | IC50 (Plasmodium falciparum [14]) [µM] | Toxicity (Leishmania) [µM]
Clc1cccc(CO[C@H]2CCc3ccccc3[C@@H]2n2ccnn2)c1 | > 32 | > 32 | 64 | > 32 | > 30 | 3.08 | >80 | >30 | 6.6 | > 32 | > 32 |  |  |  |  |  |  |  |  | 
Cc1nc(-c2ccccn2)nc(NCCc2ccc(S(C)(=O)=O)cc2)c1Cl | > 32 | > 32 | 13 | > 32 | > 30 | 4.44 | 27.9 | 30 | 2.05 | > 32 | > 32 |  |  |  |  |  |  |  |  | 
O=C(Nc1ccccc1)c1ccc(-c2cc3ccncc3cc2OC2CCNCC2)s1 |  |  |  |  |  |  | 3.65 |  |  |  |  | 96 | 1.56 | 7.37 | 100 | 2.28 | > 7.5 | 0.57 | 1.24 | 
Clc1ccc(Cl)c(CO[C@H]2CCCC[C@@H]2n2ccnc2)c1 | 16 | 16.2 | 30.7 | 22.9 | 12.8 | 1.36 | 37.1 | 30 | 15.6 | > 32 | > 32 |  |  |  |  |  |  |  |  | 
FC(F)(F)c1cc(NCCc2ccccc2)nc(-c2ccccn2)n1 | 16 | 16.2 | 5.3 | 27.2 | 5.17 | 4.25 | >80 | 30 | 0.25 | > 32 | > 32 |  |  |  |  |  |  |  |  | 
Cc1ccc(NC(=O)c2nc[nH]c2C(=O)Nc2nc3ccccc3[nH]2)c(C)c1 |  |  |  |  |  |  | 8.43 |  |  |  |  | 88 | 0.32 | > 10 | 99 | > 8.3 | > 10 | 0.36 | 0.23 | 
CN(C)c1cc(NC(=O)Nc2ccccc2)c2ccccc2n1 |  |  |  |  |  |  | 6.86 |  |  |  |  | 88 | 1.23 | > 10 | 98 | 3.13 | > 10 | 0.6 | 1.1 | 
CCn1ncc2c(NC3CCOCC3)c(CNC(=O)c3ccnn3C)c(C)nc21 |  |  |  |  |  |  | 24.5 |  |  |  |  | 89 | 0.6 | 1.6 | 100 | 0.24 | > 10 | 0.28 | 0.39 | 
COC(=O)c1cccc2oc(-c3cccc(OC)c3NC(=O)c3cc(-c4ccccc4)on3)nc12 | > 32 | > 32 | 50 | > 32 | > 30 | > 32 | >80 | >30 | 3.95 | > 32 | > 32 |  |  |  |  |  |  |  |  | 
O=C(Nc1ccc(N2CCNCC2)cc1)c1ccn2ncc(-c3cccc(Cl)c3)c2n1 |  |  |  |  |  |  | 0.76 |  |  |  |  | 97 | 1.4 | > 10 | 96 | 0.62 | > 10 | 0.78 | 1.19 | 
O=C(Nc1c(O)cccc1-c1nc2c(C(=O)O)cccc2o1)c1cc(-c2ccccc2)on1 | > 32 | > 32 | 21.9 | > 32 | > 30 | > 32 | 5.73 | >30 | 0.57 | > 32 | > 32 |  |  |  |  |  |  |  |  | 
COc1cc(-c2cc(-c3ccc(S(C)(=O)=O)cc3)cnc2N)ccc1O |  |  |  |  |  |  | 1.55 |  |  |  |  | 94 | 0.1 | 2.52 | 100 | 0.07 | > 10 | 0.1 | 0.14 | 
CN1CCC(NCc2cccc(-c3ccc(S(=O)(=O)NCc4ccccc4)cc3)c2)CC1 |  |  |  |  |  |  | 4.15 |  |  |  |  | 95 | 2.14 | 4.55 | 99 | 1.42 | > 10 | 0.82 | 2.06 | 
COc1ccc(-c2cnc3ccc(N4CCCC4)nn23)cc1OC |  |  |  |  |  |  | 4.95 |  |  |  |  | 91 | 0.86 | 0.63 | 100 | 0.41 | > 10 | 0.7 | 0.67 | 
COc1ccc(C(=N)N)cc1-c1cn(-c2ccc(C(=N)N)cc2)nn1 | > 32 | > 32 | 26.7 | < 0.13 | > 30 | 21.5 | 5.47 | 30 | 14.3 | 0.25 | > 32 |  |  |  |  |  |  |  |  | 
CCN(CC)S(=O)(=O)c1ccc(Cl)c(C(=O)Nc2ccc3nc(C)sc3c2)c1 |  |  |  |  |  |  | 10 |  |  |  |  | 86 | 0.59 | 1.31 | 100 | 3.91 | > 10 | 0.5 | 0.55 | 
Cc1ccc2c(c1C)NC(=O)C21NN=C(c2ccccc2)S1 (stereo unspecified) |  |  |  |  |  |  | >80 |  |  |  |  | 78 | 0.89 | 0.88 | 100 | 0.9 | > 7.5 | 1.13 | 2.13 | 
COc1ccc(-c2cnc3ccc(NCc4ccc(S(N)(=O)=O)cc4)nn23)cn1 |  |  |  |  |  |  | 3.29 |  |  |  |  | 82 | 0.71 | 6.8 | 100 | 1.03 | > 10 | 0.49 | 0.81 | 
N#CCN(CCCCN1CCN(c2ccc(F)cc2)CC1)C(=O)OCc1ccccc1 | > 32 | 25.4 | 15.3 | 16.4 | 22.2 | 4.62 |  | >30 | > 100 | 24.9 | > 32 |  |  |  |  |  |  |  |  | >30
N#Cc1ccc(-c2cnc(N)c(-c3ccc(C(N)=O)cc3)n2)cc1 |  |  |  |  |  |  | 12 |  |  |  |  | 87 | 0.21 | 0.28 | 100 | 0.14 | > 10 | 0.09 | 0.11 | 
